# Test results taken from patent US9242009B2, “Compositions and methods to treat neurodegenerative diseases” (The General Hospital Corporation, priority 2012, dated 2016).
# Entries after “also recorded” stand apart in the source; their conditions may differ. Read-outs that look alike come from different tables or passages of the source.
# Legend:
# SH-SY5Y [1] = test: Amyloid beta-induced toxicity in SH-SY5Y (LDH release, MTT); assay type: cell-based, Human; conditions: 24 hours incubation with Aβ1-42 at 20 μM; for Cell viabilities after Aβ1-42: compound 20 or 50 μM
# Description: FIG. 12A-B is a set of two bar graphs showing cell viability of SH-SY5Y cells exposed to 20 μM amyloid beta (Aβ) and treated with memantine, ACS48, or S-memantine at 20 or 50 μM. Cell viability was estimated by LDH release assay in the left graph and MTT assay in the right graph.
# SH-SY5Y [2] = test: Intracellular GSH levels in SH-SY5Y (HPLC); assay type: cell-based, Human
# Description: Intracellular GSH level of SH-SY5Y was measured using HPLC method as previously reported (Kimura et al. (2009) Antioxidants & Redox Signaling 12, 1-13). Briefly, cells were seeded into 6 cm dishes (5×10^5 cells per dish) and treated with 50 μM H2S donors or memantine with or without 2 mM glutamate for 8 hours, followed by washing with ice-cold PBS. Cells were scraped and transferred to a microfuge tube and sonicated. Some fraction of lysate was used for protein assay. After centrifugation, 75 μl of supernatant, 26 μl of 2-(cyclohexylamino) ethanesulfonic acid (CHES, 0.5 M, PH 8.4), and 4 μl of 50 μM MBB were mixed and incubated at room temperature in dark for 30 minutes. Acetic acid (100 μl, 30% v/v) was added, followed by centrifugation at 15,000×g for 10 min after 5 min incubation of the tube on ice. The supernatant was analyzed using HPLC at wavelength of λex=370 nm and λem=486 nm.
# [3] = test system: murine primary cortical neurons; test: Cytotoxicity of H2S donors to murine primary cortical neurons (LDH release); assay type: cell-based, mice; conditions: 24 hours
# Description: (§1) A microtiter plate containing cells was centrifuged at 250×g for 10 minutes and the supernatant was used for LDH measurement with LDH Cytotoxicity Detection Kit (Roche). After aspirating the medium, remaining cells were washed with PBS, then, 100 μl of 1% Triton-X was added to each well, followed by incubation at 37° C. for 30 minutes. Medium and lysates were used for LDH measurement at wavelength 492 nm. Percentage of released LDH was calculated with following formula: {LDH (medium)/LDH (medium+cell)×100}. Average value of control (cells without OGD) was deducted as background.
# SH-SY5Y cells [4] = test: Intracellular sulfide levels in SH-SY5Y cells (HPLC); assay type: cell-based, Human
# Description: Human neuroblastoma SH-SY5Y cells were cultured in Eagle's medium/Ham's F-12 50/50 Mix (DMEM/F12, Cellgro by Mediatech, Inc.) supplemented with 10% fetal bovine serum (FBS) and 1% penicillin/streptomycin. The cells were seeded into 96 well plates (2×10^4 cells per well) for OGD and measurements of toxicity, 6 cm dishes (5×10^5 cells per dish) for measurements of sulfide and reduced-glutathione (GSH), or 10 cm dishes (1×10^6 cells per dish) for measurements of intracellular calcium. Cell culture medium was replaced every 2 days, and the cultures were maintained at 37° C. in 95% air/5% CO2 in a humidified incubator. Cells were used after reaching 80% confluent.
# Concentration of free sulfide in SH-SY5Y cells was measured using high performance liquid chromatography (HPLC) (Tokuda et al. (2012) Antioxidants & Redox Signaling). Briefly, SH-SY5Y cells were seeded into 6 cm dishes (5×10^5 cells per dish). After being 80% confluent, 20 μM H2S donor was added to the dish and incubated at 37° C. Cells were washed with ice-cold Tris-HCl (100 mM, PH 9.5, DTPA 0.1 mM) buffer, scraped, transferred to microfuge tubes, and centrifuged. MBB (10 mM in acetonitrile, 50 μl) was added to 100 μl of supernatant. After 30 minutes of incubation at room temperature in dark, 50 μl of 200 mM 5-sulfosalicylic acid (SSA) was added. After centrifugation, supernatant was analyzed by HPLC. For sulfide levels in medium, after centrifugation, supernatant was used for MBB reaction as above.
# In contrast, incubation of SH-SY5Y cells with S-memantine increased intracellular sulfide level more markedly than incubation with ACS48 at all time points after addition (˜10 fold at 4 hours, P<0.001 by two-way ANOVA with Bonferroni post-test). In a separate experiment, we examined whether or not incubation with memantine itself or incubation with ACS48 and memantine would affect intracellular sulfide levels in SH-SY5Y cells.
# [5] = Plasma and cerebral sulfide levels of mice after intraperitoneal administration; assay type: in vivo; conditions: 25 μmol/kg intraperitoneal, 90 minutes after administration
# From the text: Blood was drawn from left ventricle and centrifuged to collect the plasma. After perfusion with Tris-HCl buffer via left ventricle, brain was harvested, homogenized in Tris-HCl, and centrifuged. Plasma and supernatant of brain homogenate were derivatized with MBB and analyzed by HPLC.
# [6] = test system: murine primary cortical neurons; test: Amyloid beta-induced toxicity in murine primary cortical neurons (LDH release, MTT); assay type: cell-based, mice; conditions: 24 hours incubation with Aβ1-42 at 20 μM; for Cell viabilities after Aβ1-42: compound 5, 10 or 30 μM
# Description: FIG. 13A-B is a set of two bar graphs depicting cell viability of murine primary cortical neurons exposed to 20 μM amyloid beta (Aβ) and treated with memantine, ACS48, or S-memantine at 5, 10, or 30 μM. Cell viability was estimated by LDH release assay in the left graph and MTT assay in the right graph.
# [7] = test system: murine primary cortical neurons; test: Intracellular calcium level [Ca2+]i (Fura-2/AM) with or without glutamate; assay type: cell-based, mice
# SH-SY5Y cells [8] = test: Oxygen-glucose deprivation (OGD) of SH-SY5Y cells, viability by LDH release, MTT and CV assays; assay type: cell-based, Human
# Description: OGD for SH-SY5Y was performed by placing cells in a hypoxia chamber ([…] Technologies Inc.) for 15 hours, followed by 24 hours of reoxygenation as previously reported (FIG. 3A) (Serra-Pérez et al. (2008) Journal of Neurochemistry 106, 1237-1247). Briefly, medium was replaced with glucose-free RPMI 1640 with L-glutamine (Cellgro by Mediatech, Inc), deoxygenated with anaerobic gas mixture (93% N2-5% CO2-2% H2) for 30 minutes before use. Cells were then placed in a hypoxia chamber, flushed with anaerobic gas mixture (93% N2-5% CO2-2% H2) and incubated at 37° C. After 15 hours of hypoxia, medium was replaced with DMEM/F12 and incubated for 24 hours at 37° C. in 95% air/5% CO2 in a humidified incubator.
# as §1
# Ten μl of thiazolyl blue tetrazolium bromide solution (5 mg/ml in PH 7.4 PBS) was added to each well containing 100 μl of medium and cells, followed by incubation at 37° C. for 4 hours in the dark. Isopropanol (100 μl, 0.04 N HCl) was added to dissolve blue dye. After dissolved completely, absorbance was measured with plate-reader (Synergy 2, BioTek Instrument) at test wavelength 570 nm and reference wavelength 670 nm. Cell viability was determined by absorbance at 570 nm and reported as ratio to control cells (without OGD).
# After aspirating culture medium, cells were fixed and stained by 0.5% CV in 95% (v/v) ethanol for 5 minutes, then washed by tap water several times. After taking photographs, 1% sodium dodecylsulfate solution was added to each well to elute blue dye. Absorbance was measured with plate-reader at 595 nm of wavelength. Values were shown as ratio to control (cells without OGD).
# SH-SY5Y cells [9] = test: MPP+-induced cytotoxicity in SH-SY5Y cells (CV, MTT assay); assay type: cell-based, Human; conditions: 24 h
# Description: The abilities of ACS48-amantadine, CTBA-memantine, S-memantine, and ACS81-memantine to improve viabilities of SH-SY5Y cells incubated with MPP^+, which has been used for an in-vitro Parkinson's disease model (Robert et al. (2012) Cell Death and Differentiation, 19, 1769-1778), were examined. SH-SY5Y cells (96 well plate, 2×10^5 cells/well) were incubated with MPP^+ (Sigma-Aldrich) at 5 mM in DMEM/F12 at 37° C. for 24 h. ACS48-amantadine, CTBA-memantine, S-memantine, or ACS81-memantine was dissolved in DMSO and added at 5 or 20 μM to the medium 30 min after the addition of MPP^+. The final concentration of DMSO in the medium was adjusted to 0.5% (v/v). Cell viabilities of SH-SY5Y 24 h after the addition of MPP^+ were measured by CV assay or MTT assay.
# mice challenged with LPS = test: LPS-induced cognitive impairment, Morris water-maze
# [10] = test system: phosphorylated Akt at threonine 308; test: Immunoblot of phosphorylated Akt in SH-SY5Y after OGD; assay type: cell-based, Human; conditions: 50 μM added 8 hours after end of OGD
# [11] = test system: phosphorylated tau protein at serine 202 and threonine 205; test: LPS-induced tau phosphorylation in mice hippocampus (immunoblot); assay type: in vivo
# [12] = time- and dose-range studies, SH-SY5Y
# [13] = 20 μM added 30 min after 5 mM MPP+
compound,measurement,setting,value
"O=C(O)c1ccc(-c2cssc2=S)cc1 [ACS48, 4-(3-thioxo-3H-1,2-dithiol-4-yl)-benzoic acid]",Cell viabilities after Aβ1-42 compared with memantine,SH-SY5Y [1],improved cell viabilities more markedly than did memantine
same,Cell viabilities after Aβ1-42,SH-SY5Y [1],improved cell viabilities
same,Intracellular GSH levels,"SH-SY5Y [2]; 50 μM, 8 hours, with 2 mM glutamate",restored intracellular GSH levels
same,Intracellular GSH levels,"SH-SY5Y [2]; 50 μM, 8 hours, without glutamate",increased intracellular GSH levels
same,LDH release (cytotoxicity),"[3]; 50 μM, without memantine",markedly increased LDH release
same,Time of peak intracellular sulfide levels after addition,"SH-SY5Y cells [4]; 20 μM, SH-SY5Y",around 1.5 hours
same,Intracellular sulfide levels,"SH-SY5Y cells [4]; 20 μM, SH-SY5Y, 37° C.",increased intracellular sulfide levels
same,Plasma sulfide levels,[5],increased plasma sulfide levels
same,Cell viabilities after Aβ1-42 compared with memantine,[6],improved cell viabilities more markedly than did memantine
same,Cell viabilities after Aβ1-42,[6],improved cell viabilities
same,Glutamate-induced calcium accumulation,"[7]; 20 μM, 100 μM glutamate",augmented glutamate-induced calcium accumulation
same,Increase of intracellular calcium [Ca2+]i,"[7]; 20 μM, without glutamate",increased
same,Most effective dose to improve viability after OGD,SH-SY5Y cells [8]; [12],50 µM
same,Most effective time point of addition after the end of OGD,SH-SY5Y cells [8]; [12],8 h
O=C(NC12CC3CC(CC(C3)C1)C2)c1ccc(-c2cssc2=S)cc1 [ACS48-amantadine],Cell viabilities of SH-SY5Y cells after MPP+,SH-SY5Y cells [9]; 5 μM added 30 min after 5 mM MPP+,improved cell viabilities
same,Cell viabilities of SH-SY5Y cells after MPP+,SH-SY5Y cells [9]; [13],improved cell viabilities
CC12CC3CC(C)(C1)CC(NC(=O)c1ccc(C(N)=S)cc1)(C3)C2 [CTBA-memantine],Cell viabilities of SH-SY5Y cells after MPP+,SH-SY5Y cells [9]; [13],improved cell viabilities
CC12CC3CC(C)(C1)CC(N)(C3)C2 [memantine],Cell viabilities after Aβ1-42,SH-SY5Y [1],improved cell viabilities
same,"GSH levels, memantine per se","SH-SY5Y [2]; 50 μM, 8 hours",did not affect GSH levels
same,LDH release caused by Na2S or ACS48 on co-incubation with memantine,[3]; 50 μM Na2S or ACS48 plus 50 μM memantine,abolished
same,Effect of memantine on intracellular sulfide levels,"SH-SY5Y cells [4]; 20 μM memantine, cells incubated with or without ACS48 20 μM",did not affect intracellular sulfide levels
same,Swimming speed in Morris water-maze test,mice challenged with LPS; 45 μmol/kg i.p.,did not change it
same,Swimming speed in Morris water-maze test,mice challenged with LPS; 90 μmol/kg i.p.,slowed swimming speed
same,Akt phosphorylation after OGD,[10],did not affect Akt phosphorylation
same,LPS-induced tau phosphorylation at serine 202 and threonine 205 in mice hippocampus,[11]; 45 μmol/kg pretreatment,prevented LPS-induced tau phosphorylation
same,Cell viabilities after Aβ1-42,[6],improved cell viabilities
same,Glutamate-induced calcium accumulation,"[7]; 20 μM, 100 μM glutamate",suppressed calcium accumulation
same,"Aβ1-42 accumulation in mice cortex, or hippocampus","Aβ1-42; 45 μmol/kg pretreatment, LPS challenge for 7 days",prevented Aβ1-42 accumulation
Sodium sulfide [Na2S],Intracellular GSH levels,SH-SY5Y [2],increased intracellular GSH levels; also recorded: restored intracellular GSH levels
same,Intracellular sulfide levels,SH-SY5Y cells [4],increased intracellular sulfide levels
same,Time of peak intracellular sulfide levels after addition,SH-SY5Y cells [4],around 1.5 hours
same,Latency until getting platform in Morris water-maze test,"mice challenged with LPS; mouse, in vivo",improved latency
same,LPS-induced tau phosphorylation at serine 202 and threonine 205 in mice hippocampus,"[11]; mouse, in vivo",prevented LPS-induced tau phosphorylation
same,Glutamate-induced calcium accumulation,[7],augmented glutamate-induced calcium accumulation
same,Increase of intracellular calcium [Ca2+]i,[7],increased
same,Cell viability after OGD (LDH release),SH-SY5Y cells [8],did not improve cell viability; also recorded: failed to improve cell viability; also recorded: No significant difference
same,"Aβ1-42 accumulation in mice cortex, or hippocampus","Aβ1-42; mouse, in vivo",prevented Aβ1-42 accumulation
same,Prevention of Aβ1-42 accumulation compared with memantine,"Aβ1-42; mouse, in vivo",prevented Aβ1-42 accumulation more markedly than did memantine
